# Measurements as given in patent publication US11046701B2, “Salt of cetagliptin, preparation method thereof, pharmaceutical composition, and use thereof” (CGENETECH (SUZHOU, CHINA) CO., LTD., priority 2018, dated 2021).
# Values joined by “and” are separate entries in the source; they are usually repeats but may differ in a detail not shown here. Equal values may be shown once. Read-outs that look alike come from different tables or passages of the source.
# Key:
# serum DPPIV [1] = molecular target: T1, serum DPPIV (Mus musculus, UniProt P28843); experiment: PK/PD experiment of ICR mice: activity of serum DPPIV; type: in vivo, CD-1 (ICR) mice; parameters: the plasma concentration and the DPPIV activity were detected by using plasma; from tissue; host or cells: blood plasma/serum of CD-1 (ICR) mice after oral dosing; conditions: ICR mice, 0.1, 0.3, 1 and 3 mg/kg intragastric (FIG. 28)
# Description: (§1) Experimental animals: CD-1 (ICR) mice aged for 4 weeks and weighed for about 18-22 g.
# (§2) Grouping and administration scheme: the mice were fed adaptively, randomly grouped according to the weight on the day before experiment, and fasted overnight. […] After the experimental grouping, the group provided separately for detecting the initial basic value of DPPIV was carried out blood sampling, and other animals were intragastrically administrated with the drug at an administration volume of 10 mL/kg, the blood was sampled after the administration, and all other animals were stimulated with glucose administration; the blood was sampled at 20 min, 40 min, 60 min and 120 min after the glucose administration, respectively, and the plasma concentration and the DPPIV activity were detected by using plasma.
# DIO mice = experiment: Long-term administration on DIO mice: fasting blood glucose; type: in vivo; conditions: for inhibition rate of the rise of the blood glucose: end of experiment (28 days), vs model control group; for fasting blood glucose data after the drug was administrated for 28 days: individual animals
# Description: (§3) A solution with a certain concentration was prepared from the crystal form B of the phosphate, and the administration volume was 10 mL/kg.
# (§4) Experimental animals: C57BL16 mice aged for 5 weeks and weighed for about 13-16 g.
# (§5) Grouping and administration scheme: the mice were fed adaptively and divided into a normal control group and a model group which were fed with high-fat feed (Research diets, D 12492). When the fasting blood glucose of the mice was greater than or equal to 7 mM, it was considered that the mice had become DIO mice. The DIO mice could be selected for the hypoglycemic effect test. The DIO mice were stratified and randomly grouped according to the blood glucose and the weight. […] The weight and the fasting blood glucose were measured weekly; the food amount, the remaining food amount and the food intake were recorded; the mice were fasted overnight at the end of administration, the blood was sampled, and the free fatty acid (NEFA), total cholesterol (TCHO), triglyceride (TG), insulin and DPPIV activity were measured by using serum.
# [2] = Weight of ICR mice of each group; type: in vivo, CD-1 (ICR) mice; conditions: individual animals
# Description: as §1, §2
# [3] = mouse, in vivo, po
# Description: as §3, §4, §5
# [4] = Stability of phosphate crystal form B under storage conditions (XRPD, HPLC purity); type: physicochemical
# Description: High performance liquid chromatography (HPLC): the high performance liquid chromatogram was acquired by Agilent 1260 HPLC.
# The crystal form B of phosphate prepared in this example was put into a 1.5 mL small bottle and the small bottles was placed under different conditions: 40° C./75% RH or 25° C./60% RH for one week in an open state, or 80° C. for 24 h. The obtained samples were subjected to XRPD test and HPLC test, and the sealed samples placed at 5° C. were used as reference samples (Initial) for HPLC purity test. […] The weight gain at 25° C./80% RH is 6.5% compared to 0% RH.
# [5] = Long-term administration on DIO mice: weight, food intake, tolerance; conditions: for weight after the drug was administrated for 28 days: individual animals
# Description: as §3, §4, §5
# [6] = PK/PD experiment of ICR mice: plasma concentration; type: in vivo, CD-1 (ICR) mice; conditions: CD-1 (ICR), mouse; for AUC: read-out: Drug exposure (AUCeff0-3 h)
# Description: as §1, §2
# Research on pharmacodynamics-plasma concentration correlation: blood samples were collected at time points of 1 h, 1.33 h, 1.67 h, 2 h and 3 h after administration, and the plasma concentration was measured. The drug exposure value (AUCeff0-3h) of the DPPIV-P1 increased with the increase of dose, which was 16.09 ng·h/mL, 52.65 ng·h/mL, 162.3 ng·h/mL and 542.28 ng·h/mL, respectively.
# serum DPPIV [7] = molecular target: T1, serum DPPIV; experiment: Long-term administration on DIO mice: inhibition of serum DPPIV; type: in vivo, C57BL16 mice; parameters: from tissue; host or cells: serum of diet-induced obese C57BL mice after 28 days of oral dosing; conditions: after long-term administration
# Excerpt: Table 18 was a total data table of the metabolic parameters.
# T1 sequence (P28843 38-760 limits assumed): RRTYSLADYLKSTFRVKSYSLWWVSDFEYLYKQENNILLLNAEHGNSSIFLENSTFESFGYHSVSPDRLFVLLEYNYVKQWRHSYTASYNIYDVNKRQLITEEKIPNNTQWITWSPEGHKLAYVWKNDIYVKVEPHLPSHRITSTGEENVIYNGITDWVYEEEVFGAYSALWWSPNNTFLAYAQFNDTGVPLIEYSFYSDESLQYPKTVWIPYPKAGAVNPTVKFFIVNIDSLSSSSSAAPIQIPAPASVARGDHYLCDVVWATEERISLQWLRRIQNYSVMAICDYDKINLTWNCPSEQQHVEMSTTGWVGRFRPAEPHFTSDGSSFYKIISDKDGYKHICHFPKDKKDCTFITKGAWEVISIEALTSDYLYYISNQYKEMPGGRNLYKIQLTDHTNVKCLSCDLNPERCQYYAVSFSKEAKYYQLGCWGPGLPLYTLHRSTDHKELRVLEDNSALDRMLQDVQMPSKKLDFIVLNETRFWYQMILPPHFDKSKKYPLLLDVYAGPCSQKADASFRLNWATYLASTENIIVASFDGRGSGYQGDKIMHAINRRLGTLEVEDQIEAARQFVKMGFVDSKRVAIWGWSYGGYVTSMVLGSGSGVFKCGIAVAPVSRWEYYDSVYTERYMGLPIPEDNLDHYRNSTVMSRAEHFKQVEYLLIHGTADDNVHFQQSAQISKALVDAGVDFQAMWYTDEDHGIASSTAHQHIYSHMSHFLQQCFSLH
smiles,measurement,setting,value
"C[C@@H]1c2cnc(C(F)(F)F)n2CCN1C(=O)C[C@H](N)Cc1cc(F)c(F)cc1F [DPPIV-P1, (8R)-7-[(3R)-3-amino-1-oxo-4-(2,4,5-trifluorophenyl)butyl]-5,6,7,8-tetrahydro-8-methyl-3-(trifluoromethyl)imidazo[1,5-a]pyrazine]",influence on the activity of serum DPPIV,serum DPPIV [1],good dose-effect relationship
same,Fasting blood glucose,"DIO mice; 0.3 mg/kg daily intragastric, D 1",8.3 ± 1.1 mmol/L
same,Fasting blood glucose,"DIO mice; 0.3 mg/kg daily intragastric, D 3",8.4 ± 0.9 mmol/L
same,Fasting blood glucose,"DIO mice; 0.3 mg/kg daily intragastric, D 7",8.4 ± 1.0 mmol/L
same,Fasting blood glucose,"DIO mice; 0.3 mg/kg daily intragastric, D 14",8.9 ± 1.1 mmol/L
same,Fasting blood glucose,"DIO mice; 0.3 mg/kg daily intragastric, D 21",8.5 ± 1.0 mmol/L
same,Fasting blood glucose,"DIO mice; 0.3 mg/kg daily intragastric, D 28",8.3 ± 0.8 mmol/L
same,inhibition rate of the rise of the blood glucose,DIO mice; 0.3 mg/kg,14.2%
same,Fasting blood glucose,"DIO mice; 3 mg/kg daily intragastric, D 1",8.3 ± 1.1 mmol/L
same,Fasting blood glucose,"DIO mice; 3 mg/kg daily intragastric, D 3",8.3 ± 0.9 mmol/L
same,Fasting blood glucose,"DIO mice; 3 mg/kg daily intragastric, D 7",8.6 ± 2.2 mmol/L
same,Fasting blood glucose,"DIO mice; 3 mg/kg daily intragastric, D 14",9.1 ± 1.6 mmol/L
same,Fasting blood glucose,"DIO mice; 3 mg/kg daily intragastric, D 21",8.6 ± 1.0 mmol/L
same,Fasting blood glucose,"DIO mice; 3 mg/kg daily intragastric, D 28",8.7 ± 0.9 mmol/L
same,inhibition rate of the rise of the blood glucose,DIO mice; 3 mg/kg,9.9%
same,Fasting blood glucose,"DIO mice; 30 mg/kg daily intragastric, D 1",8.3 ± 1.0 mmol/L
same,Fasting blood glucose,"DIO mice; 30 mg/kg daily intragastric, D 3",7.8 ± 1.5 mmol/L
same,Fasting blood glucose,"DIO mice; 30 mg/kg daily intragastric, D 7",7.9 ± 0.8 mmol/L
same,Fasting blood glucose,"DIO mice; 30 mg/kg daily intragastric, D 14",7.7 ± 0.7 mmol/L
same,Fasting blood glucose,"DIO mice; 30 mg/kg daily intragastric, D 21",8.1 ± 0.6 mmol/L
same,Fasting blood glucose,"DIO mice; 30 mg/kg daily intragastric, D 28",7.9 ± 0.6 mmol/L
same,inhibition rate of the rise of the blood glucose,DIO mice; 30 mg/kg,18.5%
same,fasting blood glucose data after the drug was administrated for 28 days,DIO mice; 0.3 mg/kg,10.3 and 8 (3×) and 7.3 (2×) and 8.8 and 8.7 and 8.3 and 8.6 and 7.9
same,fasting blood glucose data after the drug was administrated for 28 days,DIO mice; 3 mg/kg,9.2 and 7.8 (2×) and 9.8 and 8.9 and 9 and 7.3 and 9.7 and 8 and 8.3 and 10
same,fasting blood glucose data after the drug was administrated for 28 days,"DIO mice; 30 mg/kg, listed as DPPIV-PI",8.5 and 7.3 and 7.4 (3×) and 7.6 and 8.9 and 8.2 (2×) and 7.5 and 7.8
same,weight,"[2]; 0.1 mg/kg group, 0.1 mg/kg, in g (unit assumed)",22.0 and 24.5 and 24.7 and 25.1 and 26.3 and 26.9 and 24.6 and 23.4 and 24.4 and 25.0 and 23.0 and 24.8 and 24.9 and 26.2 and 24.2
same,weight,"[2]; 0.3 mg/kg group, 0.3 mg/kg",25.3 (2×) and 24.0 and 24.1 and 23.9 and 24.9 (2×) and 24.6 and 26.4 and 26.0 and 25.5 and 22.0 and 22.6 and 25.0 and 24.4
same,weight,"[2]; 1 mg/kg group, 1 mg/kg",26.9 and 25.1 (2×) and 23.5 and 23.6 (2×) and 24.9 (2×) and 24.8 and 26.1 and 25.8 and 26.4 and 25.2 and 22.4 and 23.4
same,weight,"[2]; 3 mg/kg group, 3 mg/kg, in g (unit assumed)",25.0 and 24.8 and 23.0 and 25.4 and 21.7 and 27.3 and 22.3 and 22.4 and 25.7 and 24.0 and 23.3 and 24.1 and 25.2 and 27.2 and 24.5
same,tolerance after long-term administration,[3],good in tolerance and not easy to induce hypoglycemia
same,Crystal form,"[4]; 25° C./60% RH, one week",Phosphate crystal form B
same,Purity (area %),"[4]; 25° C./60% RH, one week, open",99.65 area %
same,Crystal form,"[4]; 40° C./75% RH, one week",Phosphate crystal form B
same,Purity (area %),"[4]; 40° C./75% RH, one week, open",99.64 area %
same,Appearance,[4]; 80° C. for 24 h,changed from white solid into yellow solid
same,Crystal form,"[4]; 80° C., 24 h",Phosphate crystal form B
same,Purity (area %),"[4]; 80° C., 24 h",99.48 area %
same,Crystal form,[4]; Initial,Phosphate crystal form B
same,Purity (area %),[4]; Initial (sealed reference sample placed at 5° C.),99.78 area %
same,Food intake,[5]; 0.3 mg/kg,2.2 ± 0.3 g/day
same,weight,"[5]; 0.3 mg/kg daily, D1",38.9 ± 3.8 g
same,weight,"[5]; 0.3 mg/kg daily, D7",37.4 ± 3.4 g
same,weight,"[5]; 0.3 mg/kg daily, D14",38.2 ± 4.2 g
same,weight,"[5]; 0.3 mg/kg daily, D21",40.2 ± 4.2 g
same,weight,"[5]; 0.3 mg/kg daily, D28",39.5 ± 5.0 g
same,weight,"[5]; 0.3 mg/kg, total data table of metabolic parameters (end of experiment)",39.5 ± 5.0 g
same,Food intake,[5]; 3 mg/kg,2.2 ± 0.3 g/day
same,weight,"[5]; 3 mg/kg daily, D1",41.5 ± 3.5 g
same,weight,"[5]; 3 mg/kg daily, D7",40.9 ± 4.2 g
same,weight,"[5]; 3 mg/kg daily, D14",43.1 ± 4.9 g
same,weight,"[5]; 3 mg/kg daily, D21",44.2 ± 5.1 g
same,weight,"[5]; 3 mg/kg daily, D28",45.0 ± 5.4 g
same,weight,"[5]; 3 mg/kg, total data table of metabolic parameters (end of experiment)",45.0 ± 5.4 g
same,Food intake,[5]; 30 mg/kg,2.2 ± 0.4 g/day
same,weight,"[5]; 30 mg/kg daily, D1",41.5 ± 3.1 g
same,weight,"[5]; 30 mg/kg daily, D7",40.5 ± 3.0 g
same,weight,"[5]; 30 mg/kg daily, D14",41.2 ± 4.4 g
same,weight,"[5]; 30 mg/kg daily, D21",41.3 ± 3.5 g
same,weight,"[5]; 30 mg/kg daily, D28",42.9 ± 5.6 g
same,weight,"[5]; 30 mg/kg, total data table of metabolic parameters (end of experiment)",42.9 ± 5.6 g
same,weight after the drug was administrated for 28 days,[5]; 0.3 mg/kg,39.9 (2×) and 31.0 and 34.8 and 41.6 and 32.2 and 40.5 and 40.8 and 45.6 and 47.1 and 41.0
same,weight after the drug was administrated for 28 days,[5]; 3 mg/kg,46.8 (2×) and 42.6 and 54.1 and 48.3 and 34.4 and 42.2 and 43.1 and 46.4 and 39.7 and 50.2
same,weight after the drug was administrated for 28 days,"[5]; 30 mg/kg, in g",46.6 and 36.5 and 43.6 and 36.8 and 36.7 and 39.3 and 38.7 and 48.2 and 51.8 and 48.6 and 41.0
same,concentration at 1 h,[6]; oral dose 0.1 mg/kg,8.28 ± 0.96 ng/mL
same,concentration at 1.33 h,[6]; oral dose 0.1 mg/kg,6.51 ± 1.58 ng/mL
same,concentration at 1.67 h,[6]; oral dose 0.1 mg/kg,6.46 ± 0.2 ng/mL
same,concentration at 2 h,[6]; oral dose 0.1 mg/kg,5.73 ± 0.65 ng/mL
same,concentration at 3 h,[6]; oral dose 0.1 mg/kg,4.85 ± 0.25 ng/mL
same,AUC,[6]; oral dose 0.1 mg/kg,16.1 ng·h/mL
same,concentration at 1 h,[6]; oral dose 0.3 mg/kg,26.4 ± 6.47 ng/mL
same,concentration at 1.33 h,[6]; oral dose 0.3 mg/kg,25 ± 3.42 ng/mL
same,concentration at 1.67 h,[6]; oral dose 0.3 mg/kg,17.9 ± 2.43 ng/mL
same,concentration at 2 h,[6]; oral dose 0.3 mg/kg,20.5 ± 0.32 ng/mL
same,concentration at 3 h,[6]; oral dose 0.3 mg/kg,14.2 ± 1.48 ng/mL
same,AUC,[6]; oral dose 0.3 mg/kg,52.6 ng·h/mL
same,concentration at 1 h,[6]; oral dose 1 mg/kg,72.8 ± 7.04 ng/mL
same,concentration at 1.33 h,[6]; oral dose 1 mg/kg,71.9 ± 2.71 ng/mL
same,concentration at 1.67 h,[6]; oral dose 1 mg/kg,75.2 ± 6.09 ng/mL
same,concentration at 2 h,[6]; oral dose 1 mg/kg,57.9 ± 2.06 ng/mL
same,concentration at 3 h,[6]; oral dose 1 mg/kg,52.2 ± 5.54 ng/mL
same,AUC,[6]; oral dose 1 mg/kg,162 ng·h/mL
same,concentration at 1 h,[6]; oral dose 3 mg/kg,231 ± 16.6 ng/mL
same,concentration at 1.33 h,[6]; oral dose 3 mg/kg,292 ± 47.2 ng/mL
same,concentration at 1.67 h,[6]; oral dose 3 mg/kg,242 ± 17.7 ng/mL
same,concentration at 2 h,[6]; oral dose 3 mg/kg,201 ± 44.7 ng/mL
same,concentration at 3 h,[6]; oral dose 3 mg/kg,151 ± 26.4 ng/mL
same,AUC,[6]; oral dose 3 mg/kg,542 ng·h/mL
same,inhibition effect on the serum DPPIV compared with sitagliptin phosphate,serum DPPIV [7],obviously higher than that of sitagliptin phosphate
same,inhibition at 0.3 mg/kg,"serum DPPIV [7]; mouse, 0.3 mg/kg, vs model control group, read-out: inhibition rate against DPPIV (serum)",47.1%
same,inhibition at 3 mg/kg,"serum DPPIV [7]; mouse, 3 mg/kg, vs model control group, read-out: inhibition rate against DPPIV (serum)",82.7%
same,inhibition at 30 mg/kg,"serum DPPIV [7]; mouse, 30 mg/kg, vs model control group, read-out: inhibition rate against DPPIV (serum)",95.3%
